Source: patent US20080194482A1, “Selective Apac2 Receptor Peptide Agonists” (priority 2005, published 2008)
Square brackets hold non-standard residues; d marks the D form. Peptide text beside a SMILES is read from it. * marks the point of attachment. Orn = NCCC[C@H](N)C(=O)O; Hexanoyl = CCCCCC(=O)*; Aib = CC(C)(N)C(=O)O

Columns and labels:
[1] = target: T1, human VPAC2 (Homo sapiens, UniProt P41587); assay: Filter binding assay, 125I-labeled VIP tracer, VPAC2 membranes; conditions: read-out: Human VPAC2 Receptor Binding (IC50; nM)
T1 construct: expressed in transfected cells
T1 sequence (P41587 24-438): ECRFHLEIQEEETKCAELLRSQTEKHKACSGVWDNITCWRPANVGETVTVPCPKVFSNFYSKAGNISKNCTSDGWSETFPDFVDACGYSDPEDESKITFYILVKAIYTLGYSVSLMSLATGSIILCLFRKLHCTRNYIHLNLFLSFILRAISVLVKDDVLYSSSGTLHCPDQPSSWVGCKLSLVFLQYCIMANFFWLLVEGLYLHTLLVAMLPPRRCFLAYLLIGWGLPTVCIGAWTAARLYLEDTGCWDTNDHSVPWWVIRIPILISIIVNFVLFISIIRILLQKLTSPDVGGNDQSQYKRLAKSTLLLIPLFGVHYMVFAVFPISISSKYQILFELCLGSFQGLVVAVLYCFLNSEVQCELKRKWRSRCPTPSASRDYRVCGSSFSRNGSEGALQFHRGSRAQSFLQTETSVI

[2] = target: T2, human VPAC1 (Homo sapiens, UniProt P32241); assay: Filter binding assay, 125I-labeled VIP tracer, VPAC1 membranes; conditions: read-out: Human VPAC1 Receptor Binding (IC50; nM)
T2 construct: expressed in transfected cells
T2 sequence (P32241 31-457): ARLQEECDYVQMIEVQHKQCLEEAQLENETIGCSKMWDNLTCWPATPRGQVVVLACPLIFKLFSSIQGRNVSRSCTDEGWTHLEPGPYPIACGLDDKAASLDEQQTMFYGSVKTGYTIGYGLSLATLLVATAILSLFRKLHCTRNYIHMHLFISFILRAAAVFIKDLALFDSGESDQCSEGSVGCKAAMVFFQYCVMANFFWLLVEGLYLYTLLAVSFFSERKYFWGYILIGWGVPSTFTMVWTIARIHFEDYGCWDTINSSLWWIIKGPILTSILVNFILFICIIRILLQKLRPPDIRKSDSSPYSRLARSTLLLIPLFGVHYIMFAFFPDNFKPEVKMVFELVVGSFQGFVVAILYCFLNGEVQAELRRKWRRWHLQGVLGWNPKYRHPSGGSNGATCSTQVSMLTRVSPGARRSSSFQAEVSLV

[3] = target: T3, human PAC1 (Homo sapiens, UniProt P41586); assay: Filter binding assay, 125I-labeled PACAP-27 tracer, PAC1 membranes; conditions: read-out: Human PAC1 Receptor Binding (IC50; nM)
T3 construct: expressed in transfected cells
T3 sequence (P41586 21-468): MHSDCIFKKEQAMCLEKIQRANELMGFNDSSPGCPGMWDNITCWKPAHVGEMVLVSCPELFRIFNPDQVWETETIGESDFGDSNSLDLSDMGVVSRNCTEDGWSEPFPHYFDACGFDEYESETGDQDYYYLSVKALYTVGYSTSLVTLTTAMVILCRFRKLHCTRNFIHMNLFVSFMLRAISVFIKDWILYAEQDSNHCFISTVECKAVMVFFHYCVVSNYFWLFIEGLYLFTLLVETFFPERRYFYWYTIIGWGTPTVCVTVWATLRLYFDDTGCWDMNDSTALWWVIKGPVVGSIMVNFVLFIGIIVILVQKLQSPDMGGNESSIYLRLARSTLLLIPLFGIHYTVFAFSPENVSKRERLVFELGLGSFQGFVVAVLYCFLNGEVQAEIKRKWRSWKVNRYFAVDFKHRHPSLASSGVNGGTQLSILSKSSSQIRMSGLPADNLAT
Procedure: For this assay, the solutions and equipment include:
Presoak solution: 0.5% Polyethyleneamine in Aqua dest
Buffer for flushing filter plates: 25 mM HEPES pH 7.4
Blocking buffer: 25 mM HEPES pH 7.4; 0.2% protease free BSA
Assay buffer: 25 mM HEPES pH 7.4; 0.5% protease free BSA
Dilution and assay plate: PS-Microplate, U form
Filtration Plate: Multiscreen FB Opaque Plate; 1.0 μM Type B Glasfiber filter
In order to prepare the filter plates, the presoak solution is aspirated by vacuum filtration. The plates are flushed twice with 200 μL flush buffer. 200 μL blocking buffer is added to the filter plate. The filter plate is then incubated with 200 μL presoak solution for 1 hour at room temperature.
The assay plate is filled with 25 μL assay buffer, 25 μL membranes (2.5 μg) suspended in assay buffer, 25 μL compound (agonist) in assay buffer, and 25 μL tracer (about 40000 cpm) in assay buffer. The filled plate is incubated for 1 hour with shaking.
The transfer from assay plate to filter plate is conducted. The blocking buffer is aspirated by vacuum filtration and washed two times with flush buffer. 90 μL is transferred from the assay plate to the filter plate. The 90 μL transferred from assay plate is aspirated and washed three times with 200 μL flush buffer. The plastic support is removed. It is dried for 1 hour at 60° C. 30 μL Microscint is added. The count is performed.

[4] = Rat serum stability (activity remaining, CHO-VPAC2 DiscoveRx read-out); format: in vitro ADME
In short: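 Peptides preincubated overnight in rat serum at 37 °C without aprotinin versus 4 °C with aprotinin, then tested as 11-point 5× dilutions in duplicate on CHO-VPAC2 cells, 30 min at RT. cAMP measured by DiscoveRx kit against standards; EC50 derived for each aliquot.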

[5] = target: T4, rat VPAC2 receptor (Rattus norvegicus, UniProt P35000); assay: DiscoveRx cAMP assay, in vitro potency at rat VPAC2 receptor; format: cell-based; conditions: CHO-PO cells transiently transfected with rat VPAC2; cAMP generation; mean of two independent runs
T4 construct: expressed in transfected cells; host or cells: CHO-PO (transient, Lipofectamine)
T4 sequence (P35000 23-437): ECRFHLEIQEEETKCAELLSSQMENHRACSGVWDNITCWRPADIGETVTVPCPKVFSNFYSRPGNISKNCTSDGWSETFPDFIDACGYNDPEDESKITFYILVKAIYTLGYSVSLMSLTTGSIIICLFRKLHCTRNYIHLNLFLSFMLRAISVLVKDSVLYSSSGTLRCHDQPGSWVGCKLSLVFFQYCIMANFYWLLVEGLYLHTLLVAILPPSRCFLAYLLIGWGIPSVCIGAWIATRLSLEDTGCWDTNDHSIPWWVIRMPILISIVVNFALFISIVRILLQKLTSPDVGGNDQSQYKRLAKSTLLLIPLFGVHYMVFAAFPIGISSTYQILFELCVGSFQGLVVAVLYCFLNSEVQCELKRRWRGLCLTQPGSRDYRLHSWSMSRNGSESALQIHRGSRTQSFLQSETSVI
Procedure: DiscoveRx: CHO-PO cells are transiently transfected with rat VPAC1 or VPAC2 receptor DNA using commercially available transfection reagents (Lipofectamine from Invitrogen). The cells are seeded at a density of 10,000/well in a 96-well plate and are allowed to grow for 3 days in […] culture medium. At day 3, the assay is performed.
On the day of the experiment, the medium is removed. Also, the cells are washed twice. The cells are incubated in assay buffer plus IBMX for 15 minutes at room temperature. Afterwards, the stimuli are added and are dissolved in assay buffer. The stimuli are present for 30 minutes. Then, the assay buffer is gently removed. The cell lysis reagent of the DiscoveRx cAMP kit is added. Thereafter, the standard protocol for developing the cAMP signal as described by the manufacturer is used (DiscoveRx Inc., USA). EC50 values for cAMP generation are calculated from the raw signal or are based on absolute cAMP levels as determined by a standard curve performed on each plate.
Results for each agonist are the mean of two independent runs. Rat VPAC1 and VPAC2 results are only generated using the DiscoveRx assay.

[6] = target: T1, human VPAC2; assay: Alpha screen cAMP assay, in vitro potency at human VPAC2 receptor; format: cell-based; conditions: cAMP generation; single result from two analyses in a single run, some values average of more than one experiment

CCCCCC(=O)N[C@@H](Cc1c[nH]cn1)C(=O)N[C@@H](CO)C(=O)N[C@@H](CC(=O)O)C(=O)N[C@@H](C)C(=O)N[C@H](C(=O)N[C@@H](Cc1ccccc1)C(=O)N[C@H](C(=O)N[C@@H](CC(=O)O)C(=O)N[C@@H](CC(N)=O)C(=O)N[C@@H](Cc1ccc(O)cc1)C(=O)N[C@H](C(=O)N[C@@H](CC(C)C)C(=O)N[C@@H](CC(C)C)C(=O)N[C@@H](CCCNC(=N)N)C(=O)NC(C)(C)C(=O)N[C@@H](CCC(N)=O)C(=O)N[C@H](C(=O)N[C@@H](C)C(=O)N[C@@H](C)C(=O)NC(C)(C)C(=O)N[C@@H](CCCCN)C(=O)N[C@@H](Cc1ccc(O)cc1)C(=O)N[C@@H](CC(C)C)C(=O)N[C@@H](CCC(N)=O)C(=O)N[C@@H](CO)C(=O)N[C@H](C(=O)N[C@@H](CCCN)C(=O)N[C@@H](CC(N)=O)C(=O)N[C@@H](CCCN)C(=O)NCC(=O)NCC(=O)N1CCC[C@H]1C(=O)N[C@@H](CO)C(=O)N[C@@H](CO)C(=O)NCC(=O)N[C@@H](C)C(=O)N1CCC[C@H]1C(=O)N1CCC[C@H]1C(=O)N1CCC[C@H]1C(=O)N[C@@H](CO)C(=O)O)[C@@H](C)CC)C(C)C)[C@@H](C)O)[C@@H](C)O)C(C)C [Agonist P367] (Hexanoyl-HSDAVFTDNYTLLR[Aib]QVAA[Aib]KYLQSI[Orn]N[Orn]GGPSSGAPPPS-OH; C-terminus assumed)
IC50 [1]: > 100 nM | IC50 [2]: > 3000 nM | IC50 [3]: > 25000 nM | Rat Serum Stability (estimated purity in % after overnight incub.) [4]: 55.82%

CCCCCC(=O)N[C@@H](Cc1c[nH]cn1)C(=O)N[C@@H](CO)C(=O)N[C@@H](CC(=O)O)C(=O)N[C@@H](C)C(=O)N[C@H](C(=O)N[C@@H](Cc1ccccc1)C(=O)N[C@H](C(=O)N[C@@H](CC(=O)O)C(=O)N[C@@H](CCC(N)=O)C(=O)N[C@@H](Cc1ccc(O)cc1)C(=O)N[C@H](C(=O)N[C@@H](CCCN)C(=O)N[C@@H](CC(C)C)C(=O)N[C@@H](CCCNC(=N)N)C(=O)NC(C)(C)C(=O)N[C@@H](CCC(N)=O)C(=O)N[C@H](C(=O)N[C@@H](C)C(=O)N[C@@H](C)C(=O)NC(C)(C)C(=O)N[C@@H](CCCN)C(=O)N[C@@H](Cc1ccc(O)cc1)C(=O)N[C@@H](CC(C)C)C(=O)N[C@@H](CCC(N)=O)C(=O)N[C@@H](CO)C(=O)N[C@H](C(=O)N[C@@H](CCCN)C(=O)N[C@@H](CCCN)C(=O)NCC(=O)NCC(=O)N1CCC[C@H]1C(=O)N[C@@H](CO)C(=O)N[C@@H](CO)C(=O)NCC(=O)N[C@@H](C)C(=O)N1CCC[C@H]1C(=O)N1CCC[C@H]1C(=O)N1CCC[C@H]1C(=O)N[C@@H](CO)C(=O)O)[C@@H](C)CC)C(C)C)[C@@H](C)O)[C@@H](C)O)C(C)C [Agonist P396] (Hexanoyl-HSDAVFTDQYT[Orn]LR[Aib]QVAA[Aib][Orn]YLQSI[Orn][Orn]GGPSSGAPPPS-OH; C-terminus assumed)
EC50 [5]: 0.05 nM | IC50 [1]: 0.26 nM | IC50 [2]: > 3000 nM | IC50 [3]: > 25000 nM | EC50 [6]: 0.11 nM | Rat Serum Stability (estimated purity in % after overnight incub.) [4]: 93.07%

CCCCCC(=O)N[C@@H](Cc1c[nH]cn1)C(=O)N[C@@H](CO)C(=O)N[C@@H](CC(=O)O)C(=O)N[C@@H](C)C(=O)N[C@H](C(=O)N[C@@H](Cc1ccccc1)C(=O)N[C@H](C(=O)N[C@@H](CC(=O)O)C(=O)N[C@@H](CC(N)=O)C(=O)N[C@@H](Cc1ccc(O)cc1)C(=O)N[C@H](C(=O)N[C@@H](CCCN)C(=O)N[C@@H](CC(C)C)C(=O)N[C@@H](CCCNC(=N)N)C(=O)NC(C)(C)C(=O)N[C@@H](CO)C(=O)N[C@H](C(=O)N[C@@H](C)C(=O)N[C@@H](C)C(=O)NC(C)(C)C(=O)N[C@@H](CCCCN)C(=O)N[C@@H](Cc1ccc(O)cc1)C(=O)N[C@@H](CC(C)C)C(=O)N[C@@H](CCC(N)=O)C(=O)N[C@@H](CO)C(=O)N[C@H](C(=O)N[C@@H](CCCN)C(=O)N[C@@H](CC(N)=O)C(=O)N[C@@H](CCCN)C(=O)NCC(=O)NCC(=O)N1CCC[C@H]1C(=O)N[C@@H](CO)C(=O)N[C@@H](CO)C(=O)NCC(=O)N[C@@H](C)C(=O)N1CCC[C@H]1C(=O)N1CCC[C@H]1C(=O)N1CCC[C@H]1C(=O)N[C@@H](CO)C(=O)O)[C@@H](C)CC)C(C)C)[C@@H](C)O)[C@@H](C)O)C(C)C [Agonist P390] (Hexanoyl-HSDAVFTDNYT[Orn]LR[Aib]SVAA[Aib]KYLQSI[Orn]N[Orn]GGPSSGAPPPS-OH; C-terminus assumed)
EC50 [5]: 0.09 nM | IC50 [1]: 0.26 nM | IC50 [3]: > 25000 nM | EC50 [6]: 0.12 nM

CCCCCC(=O)N[C@@H](Cc1c[nH]cn1)C(=O)N[C@@H](CO)C(=O)N[C@@H](CC(=O)O)C(=O)N[C@@H](C)C(=O)N[C@H](C(=O)N[C@@H](Cc1ccccc1)C(=O)N[C@H](C(=O)N[C@@H](CCC(=O)O)C(=O)N[C@@H](CCC(N)=O)C(=O)N[C@@H](Cc1ccc(OC)cc1)C(=O)N[C@H](C(=O)N[C@@H](CCCN)C(=O)N[C@@H](CC(C)C)C(=O)N[C@@H](CCCNC(=N)N)C(=O)NC(C)(C)C(=O)N[C@@H](CCC(N)=O)C(=O)N[C@@H](CC(C)C)C(=O)N[C@@H](C)C(=O)N[C@@H](C)C(=O)NC(C)(C)C(=O)N[C@@H](CCCN)C(=O)N[C@@H](Cc1ccc(O)cc1)C(=O)N[C@@H](CC(C)C)C(=O)N[C@@H](CCC(N)=O)C(=O)N[C@@H](CO)C(=O)N[C@H](C(=O)N[C@@H](CCCN)C(=O)N[C@@H](CCCN)C(=O)NCC(=O)NCC(=O)N1CCC[C@H]1C(=O)N[C@@H](CO)C(=O)N[C@@H](CO)C(=O)NCC(=O)N[C@@H](C)C(=O)N1CCC[C@H]1C(=O)N1CCC[C@H]1C(=O)N1CCC[C@H]1C(=O)N[C@@H](CO)C(N)=O)[C@@H](C)CC)[C@@H](C)O)[C@@H](C)O)C(C)C [Agonist P487] (Hexanoyl-HSDAVFTEQY(Me)T[Orn]LR[Aib]QLAA[Aib][Orn]YLQSI[Orn][Orn]GGPSSGAPPPS-NH2)
EC50 [5]: 0.03 nM | IC50 [1]: 0.64 nM | IC50 [2]: > 1000 nM | EC50 [6]: 0.24 nM | Rat Serum Stability (estimated purity in % after overnight incub.) [4]: 76.98%
